# “Also recorded” adds a separate entry of the source.
# How the values were obtained:
# WT TMEM55B region 80-166 = experiment: In vitro pulldown of untagged TMEM55B with His-tagged bait peptides; format: binding; settings: 10 μM bait, 10 μM prey, Ni2+-agarose, 20 mM Tris pH 8.0, 300 mM NaCl, 20 mM imidazole, 15 minutes; SDS-PAGE, Coomassie; qualitative
# Text: (§1) Figure 5: In vitro pulldowns of TMEM55B with TBM peptides. (A) Domain organization of TMEM55B interactors depicting the sequence context of the TBM. Regions that are α-helical have been drawn as cylinders; α/βfolds are shown as rectangles; and unstructured segments are zigzag lines. (B) Cartoon depiction of the in vitro pulldown strategy using His-tagged peptides. […] As a control, the R151E variant of TMEM55B was used, which abolishes the interactions with RILPL1 (bottom panel). […] Protein/peptide concentrations were 10μM (see Methods) and visualization was enabled by Coomassie Brilliant Blue G250.
# (§2) Given that the TBMs reside in flexible regions of the adaptor proteins (Figure 5A), peptides should be able to mimic their interactions with TMEM55B. Peptides corresponding to the potential TBMs were synthesized with an N-terminal hexahistidine tag to enable in vitro pulldowns of TMEM55B (80-166; Figure 5B). Slightly extended peptides beyond the minimal TBMs were generated to preclude any structural or conformational restrictions on the interaction with TMEM55B. The peptide TBM from RILPL1 was used as a positive control, and the mutant R151E™ of TMEM55B provided a negative control. Peptides run on conventional SDS-PAGE gels are generally not visible in this assay.
# In vitro pulldowns were conducted using hexahistidine tagged peptides of interacting proteins as bait, as described in dx.doi.org/10.17504/protocols.io.dm6gpqk91lzp/v2. If not stated otherwise 10μM of bait peptide or the hexahistidine tagged PH domain of OCRL was mixed with 10μM of prey TMEM55B80-166 or TMEM55B80-160 in 1.5 mL centrifuge tubes with 25 μl Ni^2+-agarose resin in a final volume of 1ml of binding buffer (20 mM Tris pH 8.0, 300 mM NaCl, 20mM Imidazole, 10 mM β-mercapotoethanol). The reaction mixture was subjected to gentle shaking for 15 minutes. The resin was collected by gentle centrifugation (1,000 rpm) and washed 3 times with 1 ml of the binding buffer. Following release of proteins from the resin with 50μl elution buffer (20 mM Tris-Cl pH 8.0, 300 mM NaCl, 200mM imidazole), samples were subjected to SDS-PAGE and stained with Coomassie Brilliant Blue[26].
# R151E variant of TMEM55B = experiment: In vitro pulldown of TMEM55B R151E variant with His-tagged bait peptides (negative control); format: binding; settings: 10 μM bait, 10 μM prey, Ni2+-agarose, 20 mM Tris pH 8.0, 300 mM NaCl, 20 mM imidazole, SDS-PAGE, Coomassie, qualitative
# Text: as §1
# as §2, with “assay. […]” for “assay.”
Sequence,pulldown of untagged WT TMEM55B (80-166) by His-tagged bait (WT TMEM55B region 80-166),pulldown of R151E variant of TMEM55B by His-tagged bait (R151E variant of TMEM55B)
"HHHHHHSQSTEEATEATEVPD [JIP3, His-tagged JIP3 889-903 TBM peptide used as pulldown bait]",interact with TMEM55B,–
"HHHHHHGSDDLEQATEALDS [WDR81, His-tagged WDR81 657-668 TBM peptide used as pulldown bait]",interact with TMEM55B,–
"HHHHHHGSTAEEATEATEG [JIP4, His-tagged JIP4 887-897 TBM peptide used as pulldown bait]",interact with TMEM55B,–
"HHHHHHGSVQEAEETLLID [OCRL, His-tagged peptide corresponding to the TBM of OCRL, residues 65-75]",failed to pulldown TMEM55B; also recorded: did not significantly interact,–
"HHHHHHGSGYTEQGQEALQHL [His-tagged RILPL1 peptide, RILPL1 391-403 TBM peptide with N-terminal hexahistidine tag; direct pulldown, ITC]",clear band,abolished

# From paper doi:10.1101/2025.08.19.670962, “Structural basis for binding of RILPL1 to TMEM55B reveals a lysosomal platform for adaptor assembly through a conserved TBM motif” (bioRxiv, 2025)
